d = 2'-deoxy (DNA); r = 2'-OH (RNA)
Legend:
[1] = tested on: canonical pathway in MM cell lines and tumors; conditions: cited from earlier work
DcR3 = assay: siRNA knockdown of DcR3 expression, immunoblot of whole cell lysates; type: cell-based, human; conditions: P (1/2) EBV cells, 100 nM siRNA, versus control siRNA; whole cell lysates 24, 48 and 72 hours post nucleofection
Method: The expression of DcR3 was reduced using siRNAs in the EBV transformed cell lines derived from control and IBD patients harboring risk variants in TNFRSF6B (A allele). Briefly, 3×10^6 cells were transfected with 100 nM DcR3 siRNA duplexes or with DcR3 non-silence control using Amaxa Nucleofector Kit and program T-20. The siRNA-transfected cells were incubated for 48 h after nucleofection and the degree of knockdown relative to introduction of control siRNA was confirmed by western blot using DcR3 mouse monoclonal antibody (Abgent) on whole cell lysates. The 21-mer siRNAs were synthesized by DHARMACON. The DcR3 siRNA sequences were as follows: sense sequence, 5′-GCC AGG CUC UUC CUC CCA UdTdT-3′ (SEQ ID NO: 1); antisense sequence, 5′-AUG GGA GGA AGA GCC UGG CdTdT-3′ (SEQ ID NO: 2). The non-silence control siRNA sequences were as follows: sense sequence, 5′-GCC CGC UUU CCC UCA GCA UdTdT-3′ (SEQ ID NO: 3); antisense sequence, 5′-AUG CUG AGG GAA AGC GGG C-3 (SEQ ID NO: 4).
(§1) Post 24, 48 and 72 hours of nucleofection, cells were harvested and whole cell lysates were evaluated for DcR3 expression by immunoblot analysis. […] Nucleofection had no adverse effect on cell viability (data not shown). In addition, cells nucleofected with control and DcR3 siRNA post 24 h were treated with sFasL and analysed for cell death using MTT Proliferation assay.

[2] = tested on: patient EBV cells with heterozygous risk allele (1/2); assay: MTT proliferation assay of nucleofected cells treated with sFasL; type: cell-based, human; conditions: cells treated with sFasL 24 h post nucleofection; compared with control siRNA (CsiRNA) plus sFasL
Method: The effect of DcR3 on cell proliferation was measured by the colorimetric MTT assay using an MTT (Microtiter-tetrazolium, Sigma, USA) based assay. Briefly, the cells (5,000/ml) were incubated in triplicate in a 96-well plate (Costar, Cambridge, Mass., USA) in a final volume of 0.2 ml for the indicated times. Thereafter, 20 μl of MTT solution (5 g/L) was added to each well and then incubated for 12 h. After centrifugation, the supernatant was removed from each well. The colored formazan crystal produced from MTT was dissolved in 0.15 ml of DMSO and then the optical density (OD) value was measured on a microplate reader. Each experiment was performed in duplicate and repeated five times.
as §1

Compound | off-target effect on canonical NF-κB pathway [1] | DcR3 expression post nucleofection (DcR3) | cell growth (MTT) after sFasL treatment [2]
CC(C)C[C@H](NC(=O)[C@H](Cc1ccccc1)NC(=O)c1cnccn1)B(O)O [Velcade bortezomib, bortezomib] | induce up-regulation of the canonical pathway |  | 
DcR3 siRNA: 21-mer siRNA duplex, sense 5′-GCC AGG CUC UUC CUC CCA UdTdT-3′, antisense 5′-AUG GGA GGA AGA GCC UGG CdTdT-3′, synthesized by DHARMACON (sense GCCAGGCUCUUCCUCCCAUTT; antisense AUGGGAGGAAGAGCCUGGCTT; sugars from the 5' end r19 d2, backbone not given here) |  | reduced DcR3 levels first seen at 24 h and maintained for at least 48 h | decrease in cell growth

Reference: patent publication US10407725B2, “Methods of treating autoimmune conditions in patients with genetic variations in DcR3 or in a DcR3 network gene” (The Children's Hospital of Philadelphia, priority 2015, dated 2019)
